Laboratory results: ChEMBL document CHEMBL5506066, “Potency-Enhanced Peptidomimetic VHL Ligands with Improved Oral Bioavailability” (J Med Chem, 2024)
≈ marks a conversion by molar mass, not a printed value.

How the values were obtained:
[1] = target: T1, von Hippel-Lindau disease tumor suppressor (Homo sapiens, UniProt P40337); experiment: biochemical
Description: Binding affinity to VHL (unknown origin)-NanoLuc fusion protein expressed in HEK293 cells assessed as apparent dissociation constant incubated for 30 mins in presence of digitonin by NanoBRET assay

[2] = Solubility of the compound in FaSSIF; format: ADME
[3] = target: T1, von Hippel-Lindau disease tumor suppressor
[4] = Oral bioavailability in female C57Bl/6 mouse at 10 mg/kg measured upto 8 hrs by LC-MS/MS analysis; format: ADME, organism-based; details: in vivo
[5] = Apparent permeability from apical to basolateral side in MDCKI cells at 10 uM measured upto 180 mins by LC-MS/MS analysis; format: ADME, cell-based, Canis lupus familiaris, MDCK1; details: dog, MDCK
[6] = target: T1, von Hippel-Lindau disease tumor suppressor; experiment: Binding affinity to Navi-tagged VHL (unknown origin) assessed as dissociation constant by SPR assay
[7] = Volume of distribution in female C57Bl/6 mouse at 1 mg/kg, iv measured upto 8 hrs by LC-MS/MS analysis; format: ADME, organism-based; details: in vivo
[8] = Plasma clearance in female C57Bl/6 mouse at 1 mg/kg, iv measured upto 8 hrs by LC-MS/MS analysis; format: ADME, organism-based
[9] = Plasma protein binding in CD-1 mouse at 5 uM incubated for 4 hrs by HPLC analysis; format: ADME, cell-free; details: read-out: PPB (converted)
[10] = Plasma protein binding in human at 5 uM incubated for 4 hrs by HPLC analysis; format: ADME, cell-free; details: read-out: PPB (converted)
[11] = Half life in female C57Bl/6 mouse at 10 mg/kg, po measured upto 8 hrs by LC-MS/MS analysis; format: ADME, organism-based; details: in vivo
[12] = Permeability of the compound at pH 7.4 in PBS incubated for 16 hrs by LC-MS/MS based PAMPA assay; format: ADME; details: read-out: permeability

T1 sequence (P40337 whole entry): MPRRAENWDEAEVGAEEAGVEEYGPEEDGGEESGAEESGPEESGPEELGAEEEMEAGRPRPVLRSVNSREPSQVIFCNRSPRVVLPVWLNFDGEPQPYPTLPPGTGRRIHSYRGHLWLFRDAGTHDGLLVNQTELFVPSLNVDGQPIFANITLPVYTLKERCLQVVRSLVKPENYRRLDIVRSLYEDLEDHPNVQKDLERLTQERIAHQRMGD

| Kd [1] [µM] | Kd [3] [µM] | Compound | further results |
| --- | --- | --- | --- |
| < 0.0025 | < 0.0025 | Cc1ncsc1-c1ccc2c(c1)CCCC[C@@H]2NC(=O)[C@@H]1C[C@@H](O)CN1C(=O)[C@@H](n1cc(C2CC2)nn1)C(C)(C)C | solubility [2]: 190 µM (≈ 110 µg/mL); bioavailability [4]: 46.5%; Papp A→B at 3 h, 10 µM [5]: 8.9 ×10⁻⁶ cm/s; Kd [6]: 0.00054 µM; Vd [7]: 0.7 L/kg; clearance [8]: 13.9 mL/min/kg; fraction unbound at 4 h, 5 µM [9]: 0.003; fraction unbound at 4 h, 5 µM [10]: 0.003; half-life [11]: 2.3 h |
| – | – | CC(=O)N[C@H](C(=O)N1C[C@H](O)C[C@H]1C(=O)N[C@H](Cc1ccc(-c2ccccc2)cc1)C(N)=O)C(C)(C)C | Papp at 16 h [12]: 0.004 ×10⁻⁶ cm/s |
| 3.29 | > 51.8 | CC(=O)N[C@H](C(=O)N1C[C@H](O)C[C@H]1C(=O)N[C@H](Cc1ccc(-c2scnc2C)cc1)C(N)=O)C(C)(C)C | Papp at 16 h [12]: 0.19 ×10⁻⁶ cm/s |
| 0.12 | 0.18 | CC(=O)N[C@H](C(=O)N1C[C@H](O)C[C@H]1C(=O)N[C@@H](C)c1ccc(-c2scnc2C)cc1)C(C)(C)C | solubility [2]: > 200 µM; bioavailability [4]: 2.7%; Papp A→B at 3 h, 10 µM [5]: 0.7 ×10⁻⁶ cm/s; Vd [7]: 0.9 L/kg; clearance [8]: 57.7 mL/min/kg; fraction unbound at 4 h, 5 µM [9]: 0.399; fraction unbound at 4 h, 5 µM [10]: 0.516; half-life [11]: 3.8 h |
| > 51.8 | > 57.5 | NC(=O)[C@@H](Cc1ccc(-c2ccccc2)cc1)NC(=O)[C@@H]1C[C@@H](O)CN1C(=O)Cn1ccnn1 | – |
| 48.6 | > 57.5 | CC(C)(C)n1nnc(CC(=O)N2C[C@H](O)C[C@H]2C(=O)N[C@H](Cc2ccc(-c3ccccc3)cc2)C(N)=O)n1 | – |
| 18.6 | 46.5 | CSC[C@H](NC(C)=O)C(=O)N1C[C@H](O)C[C@H]1C(=O)N[C@H](Cc1ccc(-c2ccccc2)cc1)C(N)=O | – |
| 2.9 | 17.8 | CC(=O)N[C@H](C(=O)N1C[C@H](O)C[C@H]1C(=O)N[C@H](Cc1ccc(-c2ccccc2)cc1)C(N)=O)C1CCOCC1 | – |
| > 51.8 | > 57.5 | Cc1ncc(CC(=O)N2C[C@H](O)C[C@H]2C(=O)N[C@H](Cc2ccc(-c3ccccc3)cc2)C(N)=O)s1 | – |
| > 51.8 | > 57.5 | CC(=O)N[C@]1(C(=O)N2C[C@H](O)C[C@H]2C(=O)N[C@H](Cc2ccc(-c3ccccc3)cc2)C(N)=O)CC1(C)C | – |
| 18.6 | 25.4 | Cc1cnn([C@H](C(=O)N2C[C@H](O)C[C@H]2C(=O)N[C@H](Cc2ccc(-c3ccccc3)cc2)C(N)=O)C(C)C)c1 | – |
| 0.21 | 1.99 | CC(=O)N[C@H](C(=O)N1C[C@H](O)C[C@H]1C(=O)N[C@@H](C(N)=O)c1ccc(-c2scnc2C)cc1)C(C)(C)C | – |
| > 51.8 | > 57.5 | CC(=O)N[C@@]1(C(=O)N2C[C@H](O)C[C@H]2C(=O)N[C@H](Cc2ccc(-c3ccccc3)cc2)C(N)=O)CC1(C)C | – |
| 2.1 | 11.8 | CC(=O)N[C@H](C(=O)N1C[C@H](O)C[C@H]1C(=O)N[C@H](Cc1ccc(-c2ccc(F)cc2)cc1)C(N)=O)C(C)(C)C | – |
| 0.21 | 1.9 | CC(C)(C)[C@@H](C(=O)N1C[C@H](O)C[C@H]1C(=O)N[C@H](Cc1ccc(-c2ccccc2)cc1)C(N)=O)n1cc(C(N)=O)nn1 | – |
| > 51.8 | > 57.5 | Cc1cn(CC(=O)N2C[C@H](O)C[C@H]2C(=O)N[C@H](Cc2ccc(-c3ccccc3)cc2)C(N)=O)nn1 | – |
| 0.31 | 40.1 | CC(C)(C)[C@@H](C(=O)N1C[C@H](O)C[C@H]1C(=O)N[C@H](Cc1ccc(-c2ccccc2)cc1)C(N)=O)n1cc(C(=O)O)nn1 | – |
